Reference: ChEMBL document CHEMBL5126511, “The evolution paths of some reprehensive scaffolds of RORγt modulators, a perspective from medicinal chemistry” (Eur J Med Chem, 2022)

Key:
[1] = Metabolic stability in human liver microsomes assessed as clearance; assay type: ADME, Microsome; details: read-out: CLH
[2] = Metabolic stability in rat liver microsomes assessed as intrinsic clearance; assay type: ADME, Microsome; details: read-out: CLH

microsomal CLint [1] [µL/min/mg] | microsomal CLint [2] [µL/min/mg] | SMILES
30 |  | Cc1ncc(C(=O)Nc2cn3ccnc3c(CN3CCN(C(=O)C4CCCC4)[C@@H](C)C3)c2C)cn1
 | < 25 | Cc1ncc(C(=O)Nc2cn3ccnc3c(CN3CCN(c4noc(C(C)(C)C)n4)[C@@H](C)C3)c2C)cn1
97 | 33 | Cc1ncc(C(=O)Nc2cc(Cl)cc(CN3CCN(C(=O)C4CCCC4)[C@@H](C)C3)c2C)cn1
